Data reported in patent US20250042857A1, “SOS1 Inhibitor With Pyrido-Fused Six-Membered Ring Structure” (HAIHE BIOPHARMA CO., LTD., priority 2021, published 2025).
Like-named read-outs stand apart in the source and are kept apart here.

Assays:
p-ERK of PC-9 cells = experiment: p-ERK HTRF assay in PC-9 cells; format: cell-based; settings: PC-9 lung cancer cells, 1 hour treatment, read-out: IC50, inhibitory activity on p-ERK of PC-9 cells
Experimental: IC50 Values of Compounds Determined by p-ERK HTRF Assay in PC-9 Cells
Experimental objective: an inhibitory effect of the test compounds on the phosphorylation of PC-9ERK of lung cancer cells at a cellular level was evaluated by detecting the phosphorylation of ERK.
• PRMI 1640 medium (Invitrogen-11875093) • 0.25% pancreatin (Invitrogen-25200056) • Phosphoric acid buffer salt solution (PBS, pH 7.4) (Invitrogen-10010023) • Double-antibody (PS) (Invitrogen-15140122) • Fetal bovine serum (FBS) (Gibco-10091148) • Trypan blue (Gibco-15250061) • 10-cm culture dish (Corning-430167) • 10-mL pipette (Costar-4488) • Pipettor (Sartorius-17009031) • 15-mL centrifuge tube (Corning-430052) • 50-mL centrifuge tube (Corning-430829) • Cryotube (Thermo-377267) • 1.5-mL EP tube (Axygen-MCT-150-C-S) • Cell incubator (Thermo-371) • Microscope (Olympus-CKX41) • Centrifuge (Flying Pigeon-TDL-80-2B) • Cell counter (Countstar-IC-1000) • Envision (Perkin Elmer) • Spark 10M (TECAN) • Phospho-ERK1/2 (Thr202/Tyr204) Experimental kit (Cisbio, Cat. No. 64AERPEG) • PC-9 cells: RPMI1640+10% FBS+1% PS
• 1) PBS, 0.25% pancreatin, and a cell culture medium were placed in a water-bath kettle at 37° C. for preheating; • 2) cells were observed under a microscope, a fusion degree was evaluated, and no bacterial and fungi pollution was confirmed; • 3) a culture solution was removed, the cells were washed with 5 mL of PBS and digested with 2 mL of the 0.25% trypsin, the digestion was terminated with 10 mL of the fresh cell culture medium, a culture dish was rinsed, and the cells were transferred to a 15-mL centrifuge tube; • 4) the collected cells were centrifuged at 1,000 rpm for 5 minutes; • 5) after the centrifugation, the supernatant was discarded, the cells were resuspended in 5 mL of the cell culture medium, 20 μL of the resuspended cells were aspirated, and the number and viability of viable cells were recorded; • 6) the cell culture medium was used and the cell density was adjusted (PC-9:10,000 cells/well, and 45 μL per well); • 7) in a 384-well plate, 45 μL of a cell suspension per well was transferred according to an experimental design figure; and • 8) the cells were incubated overnight at 37° C. and 5% CO2.
• 1) The compounds were diluted from the stock concentration to 10 mM with 100% DMSO (Trametinib was diluted to 1 mM), then 3-fold diluted into 10 points (5 μL of the diluted compounds with the concentration of 10 mM were transferred to 10 μL of the DMSO in an LDV plate), and centrifuged at 1,000 rpm/min for 1 minute; • 2) 5 μL of the diluted compounds of step 1) were transferred to an inter plate 1 containing 45 μL of the cell culture medium (the compounds were diluted from 1,000× to 100×); • 3) 5 μL of the diluted compounds of step 2) were transferred to an inter plate 2 containing 45 μL of the cell culture medium (the compounds were diluted from 100× to 10×); • 4) 5 μL of the compounds were pipetted from the inter plate 2 into a cell culture plate (the compounds were diluted from 10 folds to 1 fold), the final concentrations of the test compounds were 10,000 nM, 3333.33 nM, 1111.11 nM, 370.37 nM, 123.46 nM, 41.15 nM, 13.72 nM, 4.57 nM, 1.52 nM, and […], the solution was centrifuged at 1,000 rpm/min for 1 minute, and the final content of the DMSO was 0.1%; and • 5) the cells were treated in an incubator at 37° C. for 1 hour. […]

KRAS-G12C/SOS1 = KRAS-G12C/SOS1 (Homo sapiens (Human), UniProt Q07889); experiment: Detection of inhibitory effects of compounds on KRAS-G12C/SOS1 (KRASG12C/SOS binding kit, HTRF); settings: Em665/620, read-out: IC50, inhibitory activity on interaction of KRAS-G12C/SOS1
Description: Experimental objective: The inhibitory effects of the tested compounds on KRAS-G12C/SOS1 were detected. IC50 was used to characterize the inhibitory ability of the compounds on the KRAS-G12C/SOS1. The lower IC50 value indicated the stronger inhibitory ability. BI-3406 was used as a positive control compound.
Experimental reagents: KRASG12C/SOS binding kit (Cisbio, cat. 63ADK000CB16PEG); DMSO (Sigma, cat. D8418-1L); and 384-well white plate (PerkinElmer, cat. 6007290)
• 1. Preparation of compounds: the test compounds were dissolved in 100% DMSO to obtain 10 mM stock solutions and the stock solutions were stored in a refrigerator in the dark. • 2. Kinase reaction process:
Preparation of compounds: the test compounds had the concentration of 5,000 nM and diluted in a 384-well plate into a 100% DMSO solution at the 200-fold final concentration, and the compounds were diluted 3-fold with 10 concentrations. 50 nL of the compounds at the 200-fold final concentration were transferred to the plate of interest, the 384-well plate, using a dispenser Echo 550. 50 nL of 100% DMSO was added to each negative control well and positive control well.
A Tag1-SOS1 solution at the 4-fold final concentration was prepared using a diluent buffer.
2.5 μL of the Tag1-SOS1 solution at the 4-fold final concentration was added to the 384-well plate.
A Tag2-KRAS-G12C solution at the 4-fold final concentration was prepared using the diluent buffer.
2.5 μL of the Tag2-KRAS-G12C solution at the 4-fold final concentration was respectively added into compound wells and the positive control wells; and 2.5 μL of the diluent buffer was added to the negative control wells.
The 384-well plate was centrifuged at 1,000 rpm for 30 seconds, shaken and mixed uniformly, and incubated at room temperature for 15 minutes.
An Anti-Tag1-TB3+ solution at the 1-fold final concentration and an Anti-Tag2-XL665 solution at the 1-fold final concentration were prepared using a detection buffer, the two solutions were mixed uniformly to obtain a Mix solution, and 5 μL of the Mix solution was added into each well.
The 384-well plate was centrifuged at 1,000 rpm for 30 seconds, shaken and mixed uniformly, and incubated at 4° C. for 120 minutes.
Em665/620 was read using an Envision microplate reader.
Inhibition %=(Max signal−Compound signal)/(Max signal−Min signal)×100 Calculation formula • wherein the Min signal was the mean value of the negative control wells, and the Max signal was the mean value of the positive control wells.
A dose-response curve was fitted using the log value of the concentration as an X axis and the percentage of the inhibitory rate as a Y axis by using the log(inhibitor) vs. response-variable slope of an analytical software GraphPadPrism5, thereby obtaining the IC50 value of each compound on an enzyme activity.

Chain of KRAS-G12C/SOS1 (Q07889 whole entry, stated change not applied): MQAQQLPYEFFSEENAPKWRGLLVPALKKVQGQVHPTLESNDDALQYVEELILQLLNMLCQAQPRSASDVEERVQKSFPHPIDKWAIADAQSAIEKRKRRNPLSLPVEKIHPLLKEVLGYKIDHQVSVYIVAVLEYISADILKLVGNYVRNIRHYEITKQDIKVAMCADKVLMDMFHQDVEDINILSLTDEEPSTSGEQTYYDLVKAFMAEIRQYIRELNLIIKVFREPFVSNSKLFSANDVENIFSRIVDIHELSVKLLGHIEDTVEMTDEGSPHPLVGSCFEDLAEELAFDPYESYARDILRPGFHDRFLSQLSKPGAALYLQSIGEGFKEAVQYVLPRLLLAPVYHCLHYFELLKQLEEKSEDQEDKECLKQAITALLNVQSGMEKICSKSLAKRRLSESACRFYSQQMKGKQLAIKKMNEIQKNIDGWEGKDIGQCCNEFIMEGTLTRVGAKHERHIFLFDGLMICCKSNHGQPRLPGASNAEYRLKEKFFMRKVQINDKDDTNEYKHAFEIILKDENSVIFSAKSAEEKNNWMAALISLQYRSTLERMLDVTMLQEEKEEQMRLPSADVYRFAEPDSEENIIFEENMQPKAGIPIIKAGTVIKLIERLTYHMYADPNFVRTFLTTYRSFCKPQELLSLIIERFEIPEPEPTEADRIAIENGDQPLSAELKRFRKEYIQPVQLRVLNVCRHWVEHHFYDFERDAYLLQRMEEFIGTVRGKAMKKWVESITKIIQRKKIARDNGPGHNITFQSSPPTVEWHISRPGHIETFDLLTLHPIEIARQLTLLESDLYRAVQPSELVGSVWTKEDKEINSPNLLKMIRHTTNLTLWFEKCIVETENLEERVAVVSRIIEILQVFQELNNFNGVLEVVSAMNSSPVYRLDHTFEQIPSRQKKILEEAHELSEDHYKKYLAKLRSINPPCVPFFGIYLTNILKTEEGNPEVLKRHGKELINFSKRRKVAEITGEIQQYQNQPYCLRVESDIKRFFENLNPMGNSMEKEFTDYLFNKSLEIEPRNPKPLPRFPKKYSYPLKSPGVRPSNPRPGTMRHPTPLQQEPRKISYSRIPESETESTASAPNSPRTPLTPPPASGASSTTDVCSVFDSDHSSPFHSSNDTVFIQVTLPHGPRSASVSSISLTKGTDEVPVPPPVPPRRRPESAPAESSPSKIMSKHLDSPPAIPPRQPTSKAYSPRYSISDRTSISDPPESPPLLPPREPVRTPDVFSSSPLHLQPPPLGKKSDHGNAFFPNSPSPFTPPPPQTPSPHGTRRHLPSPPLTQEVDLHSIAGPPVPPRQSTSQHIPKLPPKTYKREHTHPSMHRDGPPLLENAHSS

| Compound | IC50 (p-ERK of PC-9 cells; Homo sapiens, PC-9, 1 h) [nM] | IC50 (KRAS-G12C/SOS1) [nM] | IC50 (p-ERK of PC-9 cells) [nM] |
| --- | --- | --- | --- |
| CC(=O)N1CC=C(c2cc3c(N[C@H](C)c4cccc(C(F)F)c4F)ccnc3cn2)C1 [Compound B-109] | ≤ 300 | ≤ 100 | – |
| CC(=O)N1CC=C(c2cc3c(N[C@H](C)c4cccc(C(F)F)c4F)ccnc3cn2)CC1 [Compound B-3] | ≤ 300 | ≤ 100 | – |
| CC(=O)N1CCN(c2cc3c(N[C@H](C)c4cccc(C(F)F)c4F)ccnc3c(C)n2)[C@@H](CO)C1 [Compound B-63] | ≤ 300 | ≤ 100 | – |
| CC(=O)N1CCN(c2cc3c(N[C@H](C)c4cccc(C(F)F)c4F)ccnc3c(C)n2)CC1 [Compound B-62] | ≤ 300 | ≤ 100 | – |
| CC(=O)N1CCN(c2cc3c(N[C@H](C)c4cccc(C(F)F)c4F)ccnc3cn2)CC1 [Compound B-23] | ≤ 300 | ≤ 100 | – |
| CC(=O)N[C@@H]1CCN(c2cc3c(N[C@H](C)c4cccc(C(F)F)c4F)ccnc3cn2)C1 [Compound B-32] | ≤ 300 | ≤ 100 | – |
| C[C@@H](Nc1ccnc2cnc(C3(O)CCN(C(=O)CO)CC3)cc12)c1cccc(C(F)F)c1F [Compound B-113] | ≤ 300 | ≤ 100 | – |
| C[C@@H](Nc1ccnc2cnc(-c3ccn(C)c(=O)c3)cc12)c1cccc(C(F)F)c1F [Compound B-108] | ≤ 300 | ≤ 100 | – |
| C[C@@H](Nc1ccnc2cnc(C3(O)CCC(O)CC3)cc12)c1cccc(C(F)(F)F)c1F (single isomer, unassigned) [Compound B-85-P1] | 300 to 1000 | ≤ 100 | – |
| CC(=O)N1CCN(c2cc3c(N[C@H](C)c4cccc(C(F)F)c4F)ccnc3cn2)[C@H](CO)C1 [Compound B-47] | ≤ 300 | ≤ 100 | – |
| CC(=O)N1CCC(N)(c2cc3c(N[C@H](C)c4cccc(C(F)F)c4F)ccnc3cn2)CC1 [Compound B-51] | ≤ 300 | ≤ 100 | – |
| C[C@@H](Nc1ccnc2cnc(N3CCC(C(=O)O)CC3)cc12)c1cccc(C(F)F)c1F [Compound B-35] | > 1000 | ≤ 100 | – |
| C[C@@H](Nc1ccnc2cnc(N3CC[C@@H](N)C3)cc12)c1cccc(C(F)F)c1F [Compound B-31] | 300 to 1000 | ≤ 100 | – |
| C[C@@H](Nc1ccnc2cnc(C3(O)CCC(O)CC3)cc12)c1cccc(C(C)(F)F)c1F (single isomer, unassigned) [Compound B-87-P2] | – | 100 to 500 | > 1000 |
| C[C@@H](Nc1ccnc2cnc(C3(O)CCC(C(C)(C)O)CC3)cc12)c1cccc(C(F)(F)F)c1F (single isomer, unassigned) [Compound B-115-P1] | – | 100 to 500 | > 1000 |
| C[C@@H](Nc1ccnc2cnc(C3(O)CCN(C(=O)CC#N)CC3)cc12)c1cccc(C(F)F)c1F [Compound B-116] | ≤ 300 | ≤ 100 | – |
| CC(=O)N1CCN(c2cc3c(N[C@H](C)c4cccc(C(F)F)c4F)ccnc3cn2)[C@@H](CC#N)C1 [Compound B-56] | ≤ 300 | ≤ 100 | – |
| C[C@@H](Nc1ccnc2cnc(C3(O)CCN(Cc4ccccn4)CC3)cc12)c1cccc(C(F)F)c1F [Compound B-159] | 300 to 1000 | ≤ 100 | – |

Now from value to compound:

| IC50 (p-ERK of PC-9 cells; Homo sapiens, PC-9, 1 h) [nM] | IC50 (KRAS-G12C/SOS1) [nM] | IC50 (p-ERK of PC-9 cells) [nM] | Compound |
| --- | --- | --- | --- |
| ≤ 300 | ≤ 100 | – | C[C@@H](Nc1ccnc2cnc(C3(O)CCN(C(=O)C[C@@H]4CCOC4)CC3)cc12)c1cccc(C(F)F)c1F [Compound B-140] |
| ≤ 300 | ≤ 100 | – | C[C@@H](Nc1ccnc2cnc(C3(O)CCN(C(=O)N(C)C)CC3)cc12)c1cccc(C(F)F)c1F [Compound B-160] |
| > 1000 | ≤ 100 | – | C[C@@H](Nc1ccnc2cnc(C3(O)CCN(C(=O)CN4CC[C@H](O)C4)CC3)cc12)c1cccc(C(F)F)c1F [Compound B-151] |
| 300 to 1000 | 100 to 500 | – | C[C@H](O)C(=O)N1CCC(O)(c2cc3c(N[C@H](C)c4cccc(C(F)F)c4F)ccnc3c(-c3cnn(C)c3)n2)CC1 [Compound B-172] |
| ≤ 300 | ≤ 100 | – | C[C@@H](Nc1ccnc2cnc(C3(O)CCN(C(=O)C4(C#N)CC4)CC3)cc12)c1cccc(C(F)F)c1F [Compound B-127] |
| 300 to 1000 | ≤ 100 | – | C[C@@H](Nc1ccnc2cnc(C3(O)CCN(C(=O)c4cccnc4)CC3)cc12)c1cccc(C(F)F)c1F [Compound B-130] |
| ≤ 300 | ≤ 100 | – | C[C@@H](Nc1ccnc2cnc(C3(O)CCN(C(=O)N(C)CCO)CC3)cc12)c1cccc(C(F)F)c1F [Compound B-164] |
| > 1000 | ≤ 100 | – | C[C@@H](Nc1ccnc2cnc(C3(O)CCN(C(=O)[C@H]4C[C@@H](O)CN4)CC3)cc12)c1cccc(C(F)F)c1F [Compound B-145] |
| > 1000 | ≤ 100 | – | C[C@@H](Nc1ccnc2cnc(C3(O)CCN(C(=O)CN4CCC(O)CC4)CC3)cc12)c1cccc(C(F)F)c1F [Compound B-149] |
| ≤ 300 | ≤ 100 | – | C[C@@H](Nc1ccnc2cnc(C3(O)CCN(C(=O)CO)CC3)cc12)c1cccc(C(F)(F)F)c1F [Compound B-118] |
| ≤ 300 | ≤ 100 | – | C[C@H](O)C(=O)N1CCC(O)(c2cc3c(N[C@H](C)c4cccc(C(C)(F)F)c4F)ccnc3cn2)CC1 [Compound B-125] |
| ≤ 300 | ≤ 100 | – | C[C@@H](Nc1ccnc2cnc(C3(O)CCN(C(=O)[C@H]4CCOC4)CC3)cc12)c1cccc(C(F)F)c1F [Compound B-134] |
| > 1000 | ≤ 100 | – | C[C@@H](Nc1ccnc2cnc(C3(O)CCN(C(=O)CO)CC3)cc12)c1cccc(C#N)c1F [Compound B-167] |
